# Results taken from US20240173440A1, “HIGH PURITY COPPER RADIOPHARMACEUTICAL COMPOSITIONS AND DIAGNOSTIC AND THERAPEUTIC USES THEREOF” (Nuclidium AG, priority 2022, published 2024).
# How the values were obtained:
# [1] = biological target: hFAP (Homo sapiens (Human), UniProt Q12884); assay: Saturation binding on isolated HEK-293.hFAP cell membranes; design: Bmax: unit not given here; details: 37° C.
# Summary of the method: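 Membranes of HEK-293 cells expressing human FAP (10 μg protein/well) incubated with radioligand in 20 mM HEPES pH 7.4 with MgCl2, 0.2% BSA and protease inhibitors. Nonspecific binding defined with 0.1 mM FAPI-46. KD and Bmax derived from bound fraction versus equilibrium radioligand concentration.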
# [2] = system: HT-1080.hFAP and HT-1080.wt xenografts; assay: Quantitative biodistribution in HT-1080.hFAP and HT-1080.wt xenografted mice; assay type: in vivo; details: for Biodistribution HT-1080.wt: FAP-negative tumor; for Biodistribution HT-1080.hFAP: FAP-positive tumor
# [3] = Remaining PET activity in the mouse body 4h p.i.; assay type: in vivo; details: mice
# Protocol: PET/CT Imaging: Mice bearing FAP-positive and FAP-negative xenografts were injected intravenously with ^61Cu-labeled radioligands of the present disclosure or ^61Cu-NODAGA-FAPI-46 (100 μL/[…]/6-12 MBq). […] The mice were euthanized by CO2 at 4 hours p.i., and static PET scans were acquired for 30 min.
# Remaining PET activity in the mouse body 4h p.i. prior to the 4h scan was determined (Table 36).
# [4] = system: HT-1080.hFAP cells; assay: In vitro cellular uptake (cell surface and internalized fractions) in HT-1080.hFAP cells; assay type: cell-based, human
# Protocol: (§1) The cellular uptake was studied in vitro using intact cells seeded in 6-well plates overnight. On the day of the experiment, the cells were washed and incubated with each of the exemplified [^61Cu]Cu-radiotracer at different time points, either alone or in the presence of a blocking agent to distinguish between specific and non-specific uptake. At each investigated time point, the medium containing the unbound (free) radiotracer was removed, followed by two washing steps with ice-cold phosphate-buffered saline. The cells were then treated 2×5 min with ice-cold glycine solution (0.05 M, pH 2.8) to detach the cell surface-bound radiotracer (acid released). Afterwards, the cells containing the internalized radiotracer were detached with 1 M NaOH at 37° C. and collected for measurement. The amount of specific cell surface-bound and internalized radiotracer is expressed as percentage of the total applied activity, after subtracting the non-specific values.
# as §1, with “^61Cu-labeled conjugate” for “of the exemplified [^61Cu]Cu-radiotracer”
# The cells were then preconditioned in 360 μL of assay medium (MEM medium without supplements) at 37° C. for 60 min. 40 μL of a 2 nM solution of ^61Cu-labeled radioligand was added and the cells were incubated at 37° C. The cellular uptake was interrupted at different time points (15 min, 1 hour and 4 hours), by washing twice with ice-cold PBS. Cell surface-bound radioligand was obtained by washing cells twice with ice-cold glycine buffer (pH 2.8), followed by a collection of the internalized fraction with 1 M NaOH. The activity in each fraction was measured in a γ-counter (Cobra II).
# [5] = 1 h p.i., HT-1080.hFAP and HT-1080.wt xenografts
# [6] = 4 h p.i., HT-1080.hFAP and HT-1080.wt xenografts
# [7] = HT-1080.hFAP and HT-1080.wt xenografts
# [8] = 15 min, HT-1080.hFAP cells, specific uptake (minus HT-1080.wt)
# [9] = 240 min, HT-1080.hFAP cells, specific uptake (minus HT-1080.wt)
# hFAP, sequence (Q12884 whole entry): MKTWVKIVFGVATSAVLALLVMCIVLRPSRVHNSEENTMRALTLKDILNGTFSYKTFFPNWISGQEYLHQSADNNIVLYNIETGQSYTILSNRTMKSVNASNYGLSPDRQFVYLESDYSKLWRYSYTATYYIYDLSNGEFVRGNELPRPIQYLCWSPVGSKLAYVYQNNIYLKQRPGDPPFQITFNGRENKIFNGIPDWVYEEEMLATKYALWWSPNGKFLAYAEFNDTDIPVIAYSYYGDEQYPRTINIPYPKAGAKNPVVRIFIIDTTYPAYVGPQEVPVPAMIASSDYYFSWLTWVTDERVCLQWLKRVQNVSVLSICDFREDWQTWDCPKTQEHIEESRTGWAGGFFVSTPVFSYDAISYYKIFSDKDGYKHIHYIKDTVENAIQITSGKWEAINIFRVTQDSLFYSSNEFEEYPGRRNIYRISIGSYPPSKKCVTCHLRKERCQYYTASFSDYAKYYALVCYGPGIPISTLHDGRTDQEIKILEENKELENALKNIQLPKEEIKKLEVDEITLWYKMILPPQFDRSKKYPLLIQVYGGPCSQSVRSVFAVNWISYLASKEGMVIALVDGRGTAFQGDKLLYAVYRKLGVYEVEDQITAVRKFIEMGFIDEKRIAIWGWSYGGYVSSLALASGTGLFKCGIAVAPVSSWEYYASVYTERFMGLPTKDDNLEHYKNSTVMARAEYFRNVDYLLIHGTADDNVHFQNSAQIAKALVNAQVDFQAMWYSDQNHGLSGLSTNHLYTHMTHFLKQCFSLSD
structure (smiles),measurement,setting,value
CN(C(=O)CCC(=O)N1CCN(C(=O)CC[C@H](C(=O)O)N2CCN3CCN(CC2)CC(=O)[O][61Cu][O]C(=O)C3)CC1)c1ccc2nccc(C(=O)NCC(=O)N3CC(F)(F)C[C@H]3C#N)c2c1 [[^61Cu]Cu-NODAGA-F4],Bmax,[1],9.1-9.8
same,Biodistribution Heart,[2]; 1 hour p.i.,0.6 ± 0.0 % I.A./g
same,Biodistribution Intestine,[2]; 1 hour p.i.,0.5 ± 0.2 % I.A./g
same,Biodistribution Liver,[2]; 1 hour p.i.,0.6 ± 0.1 % I.A./g
same,Biodistribution Lung,[2]; 1 hour p.i.,0.9 ± 0.1 % I.A./g
same,Biodistribution Muscle,[2]; 1 hour p.i.,0.8 ± 0.2 % I.A./g
same,Biodistribution Spleen,[2]; 1 hour p.i.,0.4 ± 0.0 % I.A./g
same,Biodistribution Stomach,[2]; 1 hour p.i.,0.5 ± 0.0 % I.A./g
same,Biodistribution Adrenal,[2]; [5],1.1 ± 0.2 % IA/g
same,Biodistribution Blood,[2]; [5],1.4 ± 0.1 % IA/g
same,Biodistribution Femur,[2]; [5],3.2 ± 0.8 % IA/g
same,Biodistribution HT1080.hFAP (FAP-positive tumor),[2]; [5],7.4 ± 1.6 % IA/g
same,Biodistribution HT1080.wt (FAP-negative tumor),[2]; [5],1.7 ± 0.2 % IA/g
same,Biodistribution Heart,[2]; [5],0.6 ± 0.0 % IA/g
same,Biodistribution Intestine,[2]; [5],0.5 ± 0.2 % IA/g
same,Biodistribution Kidney,[2]; [5],1.8 ± 0.2 % IA/g
same,Biodistribution Liver,[2]; [5],0.6 ± 0.1 % IA/g
same,Biodistribution Lung,[2]; [5],0.9 ± 0.1 % IA/g
same,Biodistribution Muscle,[2]; [5],0.8 ± 0.2 % IA/g
same,Biodistribution Pancreas,[2]; [5],1.1 ± 0.1 % IA/g
same,Biodistribution Spleen,[2]; [5],0.4 ± 0.0 % IA/g
same,Biodistribution Stomach,[2]; [5],0.5 ± 0.0 % IA/g
same,Biodistribution Adrenal,[2]; 4 hours p.i.,0.5 ± 0.1 % I.A./g
same,Biodistribution Blood,[2]; 4 hours p.i.,0.4 ± 0.1 % I.A./g
same,Biodistribution Heart,[2]; 4 hours p.i.,0.2 ± 0.0 % I.A./g
same,Biodistribution Intestine,[2]; 4 hours p.i.,0.3 ± 0.1 % I.A./g
same,Biodistribution Liver,[2]; 4 hours p.i.,0.4 ± 0.0 % I.A./g
same,Biodistribution Lung,[2]; 4 hours p.i.,0.3 ± 0.0 % I.A./g
same,Biodistribution Muscle,[2]; 4 hours p.i.,0.4 ± 0.1 % I.A./g
same,Biodistribution Pancreas,[2]; 4 hours p.i.,0.4 ± 0.1 % I.A./g
same,Biodistribution Spleen,[2]; 4 hours p.i.,0.2 ± 0.0 % I.A./g
same,Biodistribution Stomach,[2]; 4 hours p.i.,0.2 ± 0.0 % I.A./g
same,Biodistribution Adrenal,[2]; [6],0.5 ± 0.1 % IA/g
same,Biodistribution Blood,[2]; [6],0.4 ± 0.1 % IA/g
same,Biodistribution Femur,[2]; [6],1.2 ± 0.1 % IA/g
same,Biodistribution HT1080.hFAP (FAP-positive tumor),[2]; [6],3.0 ± 0.8 % IA/g
same,Biodistribution HT1080.wt (FAP-negative tumor),[2]; [6],0.6 ± 0.0 % IA/g
same,Biodistribution Heart,[2]; [6],0.2 ± 0.0 % IA/g
same,Biodistribution Intestine,[2]; [6],0.3 ± 0.1 % IA/g
same,Biodistribution Kidney,[2]; [6],1.1 ± 0.1 % IA/g
same,Biodistribution Liver,[2]; [6],0.4 ± 0.0 % IA/g
same,Biodistribution Lung,[2]; [6],0.3 ± 0.0 % IA/g
same,Biodistribution Muscle,[2]; [6],0.4 ± 0.1 % IA/g
same,Biodistribution Pancreas,[2]; [6],0.4 ± 0.1 % IA/g
same,Biodistribution Spleen,[2]; [6],0.2 ± 0.0 % IA/g
same,Biodistribution Stomach,[2]; [6],0.2 ± 0.0 % IA/g
same,Biodistribution HT-1080.wt,[2]; 1 hour p.i.,1.7 ± 0.2 % I.A./g
same,Biodistribution HT-1080.wt,[2]; 4 hours p.i.,0.6 ± 0.0 % I.A./g
same,Biodistribution HT-1080.hFAP,[2]; 1 hour p.i.,7.4 ± 1.6 % I.A./g
same,Biodistribution HT-1080.hFAP,[2]; 4 hours p.i.,3.0 ± 0.8 % I.A./g
same,accumulation in tumor and target-positive tissues,[2]; [7],high accumulation in FAP-positive (HT-1080.hFAP) tumor and murine-FAP-positive tissues
same,retention in the body (remaining PET activity),[3],lowest value
same,Cell surface fraction,[4]; [8],1.0 ± 0.7 % of the applied activity
same,Cell surface fraction,[4]; [9],0.9 ± 0.6 % of the applied activity
same,Cell surface fraction,"[4]; Time Point 15 min, 0.2 nM",1.0 ± 0.7 percentage of the total applied activity
same,Cell surface fraction,"[4]; Time Point 240 min, 0.2 nM",0.9 ± 0.6 percentage of the total applied activity
CN(CCCN1CCN(C(=O)CCC(C(=O)O)N2CCN3CCN(CC2)CC(=O)[O][61Cu][O]C(=O)C3)CC1)c1ccc2nccc(C(=O)NCC(=O)N3CC(F)(F)C[C@H]3C#N)c2c1 (stereo partly shown) [[^61Cu]Cu-NODAGA-FAPI-46],Bmax,[1],9.0-10.3
same,Biodistribution Adrenal,[2]; [5],2.2 ± 0.1 % IA/g
same,Biodistribution Blood,[2]; [5],2.6 ± 0.1 % IA/g
same,Biodistribution Femur,[2]; [5],6.5 ± 0.4 % IA/g
same,Biodistribution HT1080.hFAP (FAP-positive tumor),[2]; [5],8.4 ± 1.4 % IA/g
same,Biodistribution HT1080.wt (FAP-negative tumor),[2]; [5],3.1 ± 0.0 % IA/g
same,Biodistribution Heart,[2]; [5],1.1 ± 0.0 % IA/g
same,Biodistribution Intestine,[2]; [5],1.0 ± 0.4 % IA/g
same,Biodistribution Kidney,[2]; [5],1.5 ± 0.1 % IA/g
same,Biodistribution Liver,[2]; [5],0.9 ± 0.0 % IA/g
same,Biodistribution Lung,[2]; [5],1.5 ± 0. % IA/g
same,Biodistribution Muscle,[2]; [5],1.7 ± 0.1 % IA/g
same,Biodistribution Pancreas,[2]; [5],2.0 ± 0.2 % IA/g
same,Biodistribution Spleen,[2]; [5],0.7 ± 0.1 % IA/g
same,Biodistribution Stomach,[2]; [5],1.0 ± 0.1 % IA/g
same,Biodistribution Adrenal,[2]; [6],2.0 ± 0.2 % IA/g
same,Biodistribution Blood,[2]; [6],1.5 ± 0.1 % IA/g
same,Biodistribution Femur,[2]; [6],4.6 ± 0.4 % IA/g
same,Biodistribution HT1080.hFAP (FAP-positive tumor),[2]; [6],7.7 ± 0.4 % IA/g
same,Biodistribution HT1080.wt (FAP-negative tumor),[2]; [6],2.5 ± 0.2 % IA/g
same,Biodistribution Heart,[2]; [6],0.7 ± 0.1 % IA/g
same,Biodistribution Intestine,[2]; [6],0.6 ± 0.2 % IA/g
same,Biodistribution Kidney,[2]; [6],1.0 ± 0.1 % IA/g
same,Biodistribution Liver,[2]; [6],0.8 ± 0.2 % IA/g
same,Biodistribution Lung,[2]; [6],1.0 ± 0.1 % IA/g
same,Biodistribution Muscle,[2]; [6],1.4 ± 0.2 % IA/g
same,Biodistribution Pancreas,[2]; [6],1.6 ± 0.1 % IA/g
same,Biodistribution Spleen,[2]; [6],0.5 ± 0.1 % IA/g
same,Biodistribution Stomach,[2]; [6],0.6 ± 0.1 % IA/g
same,accumulation in tumor and target-positive tissues,[2]; [7],high accumulation in FAP-positive (HT-1080.hFAP) tumor and murine-FAP-positive tissues
same,retention in the body (remaining PET activity),[3],highest retention in the body
same,Cell surface fraction,[4]; [8],0.9 ± 0.3 % of the applied activity
same,Internalized fraction,[4]; [9],50.0 ± 6.0 % of the applied activity
same,Cell surface fraction,"[4]; Time Point 15 min, 0.2 nM",0.9 ± 0.3 percentage of the total applied activity
same,Internalized fraction,"[4]; Time Point 240 min, 0.2 nM",50.0 ± 6.0 percentage of the total applied activity
